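Where inhibition never reached the appropriate level, the endpoint shown equals the highest concentration tested. Otherwise, values were interpolated linearly from a five-concentration, 48-hour dose response in 96-well plates. Abbreviation: GI50, concentration required for 50% inhibition of growth.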 Calls of active or inactive are those of the source. Rule as the data show it: active = GI50 up to about 1.1 µM and inactive = higher.
Tests used:
Test in all cases: NCI-60 cell line screen, 48 h
MOLT-4 = system: MOLT-4
BT-549 = system: BT-549
EKVX = system: EKVX
OVCAR-8 = system: OVCAR-8
SR = system: SR
A549 = system: A549
HT-29 = system: HT-29
DU-145 = system: DU-145
NCI-H226 = system: NCI-H226
PC-3 = system: PC-3
NCI-H23 = system: NCI-H23
HL-60 = system: HL-60
RXF 393 = system: RXF 393
SW-620 = system: SW-620
SN12C = system: SN12C
UO-31 = system: UO-31
NCI-H460 = system: NCI-H460
OVCAR-5 = system: OVCAR-5
SF-539 = system: SF-539
T47D = system: T47D
U-251 = system: U-251
MDA-N = system: MDA-N
SK-OV-3 = system: SK-OV-3
K562 = system: K562
HCC 2998 = system: HCC 2998
SK-MEL-28 = system: SK-MEL-28
CAKI-1 = system: CAKI-1
MDA-MB-231 = system: MDA-MB-231
HCT-116 = system: HCT-116
SNB-75 = system: SNB-75
NCI/ADR-RES = system: NCI/ADR-RES
NCI-H522 = system: NCI-H522
MCF7 = system: MCF7
Hs-578T = system: Hs-578T
A498 = system: A498
SF-295 = system: SF-295
SF-268 = system: SF-268
UACC-257 = system: UACC-257
IGROV-1 = system: IGROV-1
SK-MEL-2 = system: SK-MEL-2
SK-MEL-5 = system: SK-MEL-5
LOX IMVI = system: LOX IMVI
HOP-92 = system: HOP-92
OVCAR-3 = system: OVCAR-3
UACC-62 = system: UACC-62
HOP-62 = system: HOP-62
COLO 205 = system: COLO 205
Malme-3M = system: Malme-3M
TK-10 = system: TK-10
KM12 = system: KM12
MDA-MB-435 = system: MDA-MB-435
M14 = system: M14
CCRF-CEM = system: CCRF-CEM
RPMI-8226 = system: RPMI-8226
HCT-15 = system: HCT-15
SNB-19 = system: SNB-19
OVCAR-4 = system: OVCAR-4
ACHN = system: ACHN
786-0 = system: 786-0

## COC(=O)C1(c2ccc(N(C)C)cc2OC)CCCN(C(=O)Oc2ccccc2[N+](=O)[O-])CCc2c1[nH]c1ccccc21 (stereo unspecified)
MOLT-4
  GI50: 16900 nM (inactive)
BT-549
  GI50: > 100000 nM (inactive)
EKVX
  GI50: > 100000 nM (inactive)
OVCAR-8
  GI50: > 100000 nM (inactive)
SR
  GI50: > 100000 nM (inactive)
A549
  GI50: > 100000 nM (inactive)
HT-29
  GI50: > 100000 nM (inactive)
DU-145
  GI50: > 100000 nM (inactive)
NCI-H226
  GI50: > 100000 nM (inactive)
PC-3
  GI50: > 100000 nM (inactive)
NCI-H23
  GI50: > 100000 nM (inactive)
HL-60
  GI50: 22900 nM (inactive)
RXF 393
  GI50: > 100000 nM (inactive)
SW-620
  GI50: > 100000 nM (inactive)
SN12C
  GI50: > 100000 nM (inactive)
UO-31
  GI50: 51400 nM (inactive)
NCI-H460
  GI50: > 100000 nM (inactive)
OVCAR-5
  GI50: > 100000 nM (inactive)
SF-539
  GI50: > 100000 nM (inactive)
T47D
  GI50: > 100000 nM (inactive)
U-251
  GI50: > 100000 nM (inactive)
MDA-N
  GI50: > 100000 nM (inactive)
SK-OV-3
  GI50: > 100000 nM (inactive)
K562
  GI50: 78300 nM (inactive)
HCC 2998
  GI50: > 100000 nM (inactive)
SK-MEL-28
  GI50: > 100000 nM (inactive)
CAKI-1
  GI50: > 100000 nM (inactive)
MDA-MB-231
  GI50: > 100000 nM (inactive)
HCT-116
  GI50: > 100000 nM (inactive)
SNB-75
  GI50: > 100000 nM (inactive)
NCI/ADR-RES
  GI50: > 100000 nM (inactive)
NCI-H522
  GI50: > 100000 nM (inactive)
MCF7
  GI50: > 100000 nM (inactive)
Hs-578T
  GI50: > 100000 nM (inactive)
A498
  GI50: > 100000 nM (inactive)
SF-295
  GI50: > 100000 nM (inactive)
SF-268
  GI50: > 100000 nM (inactive)
UACC-257
  GI50: > 100000 nM (inactive)
IGROV-1
  GI50: > 100000 nM (inactive)
SK-MEL-2
  GI50: > 100000 nM (inactive)
SK-MEL-5
  GI50: > 100000 nM (inactive)
LOX IMVI
  GI50: > 100000 nM (inactive)
HOP-92
  GI50: > 100000 nM (inactive)
OVCAR-3
  GI50: > 100000 nM (inactive)
UACC-62
  GI50: > 100000 nM (inactive)
HOP-62
  GI50: > 100000 nM (inactive)
COLO 205
  GI50: > 100000 nM (inactive)
Malme-3M
  GI50: > 100000 nM (inactive)
TK-10
  GI50: > 100000 nM (inactive)
KM12
  GI50: > 100000 nM (inactive)
MDA-MB-435
  GI50: > 100000 nM (inactive)
M14
  GI50: > 100000 nM (inactive)

## COC1/C=C\C=C(/C)C(=O)NC2=CC(=O)C(O)=C(CC(C)CC(OC)C(O)C(C)/C=C(\C)C1OC(N)=O)C2=O (stereo unspecified)
MOLT-4
  GI50: 95.9 nM (active)
BT-549
  GI50: 40500 nM (inactive)
EKVX
  GI50: 10800 nM (inactive)
OVCAR-8
  GI50: 351 nM (active)
SR
  GI50: 40.6 nM (active)
A549
  GI50: 4790 nM (inactive)
HT-29
  GI50: 26.9 nM (active)
DU-145
  GI50: 115 nM (active)
NCI-H226
  GI50: > 100000 nM (inactive)
PC-3
  GI50: 253 nM (active)
NCI-H23
  GI50: 482 nM (active)
HL-60
  GI50: 169 nM (active)
CCRF-CEM
  GI50: 28.2 nM (active)
RPMI-8226
  GI50: 78.9 nM (active)
HCT-15
  GI50: 2260 nM
RXF 393
  GI50: 136 nM (active)
SW-620
  GI50: 15.8 nM (active)
SN12C
  GI50: 44.6 nM (active)
UO-31
  GI50: 3950 nM (inactive)
NCI-H460
  GI50: 1500 nM (inactive)
OVCAR-5
  GI50: 11500 nM (inactive)
SNB-19
  GI50: 15800 nM (inactive)
SF-539
  GI50: 984 nM (active)
T47D
  GI50: 7050 nM (inactive)
U-251
  GI50: 1030 nM (active)
MDA-N
  GI50: 36.4 nM (active)
SK-OV-3
  GI50: 3590 nM (inactive)
K562
  GI50: 137 nM (active)
HCC 2998
  GI50: 1400 nM (inactive)
SK-MEL-28
  GI50: 316 nM (active)
CAKI-1
  GI50: 2550 nM (inactive)
MDA-MB-231
  GI50: 366 nM (active)
HCT-116
  GI50: 267 nM (active)
OVCAR-4
  GI50: 10300 nM (inactive)
NCI/ADR-RES
  GI50: 64600 nM (inactive)
NCI-H522
  GI50: 59.6 nM (active)
MCF7
  GI50: 82.6 nM (active)
Hs-578T
  GI50: 3130 nM (inactive)
A498
  GI50: 38500 nM (inactive)
SF-295
  GI50: 4990 nM (inactive)
SF-268
  GI50: 5700 nM (inactive)
UACC-257
  GI50: 384 nM (active)
IGROV-1
  GI50: 757 nM (active)
ACHN
  GI50: 2810 nM (inactive)
SK-MEL-2
  GI50: 893 nM (active)
SK-MEL-5
  GI50: 859 nM (active)
LOX IMVI
  GI50: 406 nM (active)
HOP-92
  GI50: 382 nM (active)
OVCAR-3
  GI50: 325 nM (active)
UACC-62
  GI50: 382 nM (active)
HOP-62
  GI50: 13700 nM (inactive)
COLO 205
  GI50: 42.2 nM (active)
Malme-3M
  GI50: 66.8 nM (active)
786-0
  GI50: 10100 nM (inactive)
TK-10
  GI50: 438 nM (active)
KM12
  GI50: 649 nM (active)
MDA-MB-435
  GI50: 53.7 nM (active)
M14
  GI50: 560 nM (active)

## COc1ccc2c(c1)C1=NCCN(C)c3ccc([N+](=O)[O-])c(c31)N2
MOLT-4
  GI50: 705 nM (active)
BT-549
  GI50: 2910 nM (inactive)
EKVX
  GI50: 1560 nM (inactive)
OVCAR-8
  GI50: 900 nM (active)
SR
  GI50: 2880 nM (inactive)
A549
  GI50: 525 nM (active)
HT-29
  GI50: 573 nM (active)
DU-145
  GI50: 1020 nM (active)
NCI-H226
  GI50: 502 nM (active)
PC-3
  GI50: 583 nM (active)
NCI-H23
  GI50: 891 nM (active)
HL-60
  GI50: 3160 nM (inactive)
CCRF-CEM
  GI50: 5730 nM (inactive)
HCT-15
  GI50: 460 nM
RXF 393
  GI50: 277 nM (active)
SW-620
  GI50: 415 nM (active)
SN12C
  GI50: 796 nM (active)
UO-31
  GI50: 555 nM (active)
NCI-H460
  GI50: 271 nM (active)
OVCAR-5
  GI50: 2190 nM (inactive)
SNB-19
  GI50: 652 nM (active)
SF-539
  GI50: 423 nM (active)
T47D
  GI50: 2660 nM (inactive)
U-251
  GI50: 1340 nM (inactive)
MDA-N
  GI50: 546 nM (active)
SK-OV-3
  GI50: 2230 nM (inactive)
K562
  GI50: 12200 nM (inactive)
HCC 2998
  GI50: 1260 nM (inactive)
SK-MEL-28
  GI50: 2550 nM (inactive)
CAKI-1
  GI50: 698 nM (active)
MDA-MB-231
  GI50: 565 nM (active)
HCT-116
  GI50: 312 nM (active)
OVCAR-4
  GI50: 685 nM (active)
NCI/ADR-RES
  GI50: 665 nM (active)
NCI-H522
  GI50: 635 nM (active)
MCF7
  GI50: 1150 nM (inactive)
Hs-578T
  GI50: 1660 nM (inactive)
A498
  GI50: 1610 nM (inactive)
SF-295
  GI50: 1020 nM (active)
SF-268
  GI50: 731 nM (active)
UACC-257
  GI50: 2540 nM (inactive)
IGROV-1
  GI50: 1410 nM (inactive)
ACHN
  GI50: 465 nM (active)
SK-MEL-5
  GI50: 1450 nM (inactive)
LOX IMVI
  GI50: 431 nM (active)
HOP-92
  GI50: 1400 nM (inactive)
OVCAR-3
  GI50: 1360 nM (inactive)
UACC-62
  GI50: 1100 nM (active)
HOP-62
  GI50: 785 nM (active)
COLO 205
  GI50: 533 nM (active)
Malme-3M
  GI50: 1040 nM (active)
786-0
  GI50: 430 nM (active)
TK-10
  GI50: 2860 nM (inactive)
KM12
  GI50: 1210 nM (inactive)
MDA-MB-435
  GI50: 748 nM (active)
M14
  GI50: 1000 nM (active)
